According to patent US10040815B2, “3-substituted 5-amino-6H-thiazolo[4,5-d]pyrimidine-2,7-dione compounds for the treatment and prophylaxis of virus infection” (Hoffmann-La Roche Inc., priority 2014, dated 2018):

What was measured:
murine PBMC = assay: In vitro cytokine induction in murine PBMC (multiplex assay); conditions: 2 to 10 μM, 24 hours, dose-dependent
Method: Supernatants were collected at 24 hour post treatment and cytokine levels in supernatants were assessed by a multiplex assay.
50 μL of cell culture medium was collected and analyzed with a 36 plex Procarta multiplex kit (ebioscience EPX360-26092-901, eBioscience), which measured the levels of 15 cytokine analytes, following the manufacturer's instruction.

murine TLR7 = murine TLR7 (Mus musculus (Mouse), UniProt P58681); assay: HEK293-Blue-mTLR7 cell assay (SEAP reporter); assay type: cell-based; conditions: HEK293-Blue-mTLR7 cells, 20 hours incubation; read-out: EC50 of murine TLR7 activation
Method: FIG. 1: Example 1-A activates murine TLR7 in a HEK-Blue-mTLR assay. The cells were incubated with Example 1-A and a positive control GS-9620 at indicated concentrations for 20 hours. The activation of murine TLR7 was measured using a Quanti-Blue assay.
TLR7 Agonist Example 1-A Activates Murine TLR7
The potency of the TLR7 agonist Example 1-A activating murine TLR7 was assessed using a stable HEK293-Blue-mTLR7 cell line available from InvivoGen (Cat.#: hkb-mtlr7, San Diego, Calif., USA). Similar to the HEK293-Blue-hTLR7 as described in Example 43, the HEK293-Blue-mTLR7 is designed for studying the stimulation of murine TLR7 by monitoring the activation of NF-κB. A SEAP reporter gene was placed under the control of the IFN-β minimal promoter fused to five NF-κB and AP-1-binding sites. The SEAP expression was induced by the activation of NF-κB and AP-1 upon stimulation of murine TLR7 with TLR7 ligands. SEAP expression in cell culture supernatant was determined using a QUANTI-Blue™ kit (Cat.#: rep-qb1, Invivogen, San Diego, Calif., USA), a detection medium that turns purple/blue in the presence of alkaline phosphatase, at a wavelength of 655 nm. […]

human TLR7 = human TLR7 (Homo sapiens (Human), UniProt Q9NYK1); assay: HEK293-Blue-hTLR-7 cells assay (SEAP reporter, NF-κB activation); assay type: cell-based; conditions: HEK293-Blue-hTLR-7 cells, 20 hours incubation, SEAP reporter; read-out: HEK293- hTLR-7 EC50
Text: HEK293-Blue-hTLR-7 Cells Assay: A stable HEK293-Blue-hTLR-7 cell line was purchased from InvivoGen (Cat.#: hkb-htlr7, San Diego, Calif., USA). These cells were designed for studying the stimulation of human TLR7 by monitoring the activation of NF-κB. A SEAP (secreted embryonic alkaline phosphatase) reporter gene was placed under the control of the IFN-β[…] minimal promoter fused to five NF-κB and AP-1-binding sites. The SEAP was induced by activating NF-κB and AP-1 via stimulating HEK-Blue hTLR7 cells with TLR7 ligands. Therefore the reporter expression was regulated by the NF-κB promoter upon stimulation of human TLR7 for 20 hours. The cell culture supernatant SEAP reporter activity was determined using QUANTI-Blue™ kit (Cat.#: rep-qb1, Invivogen, San Diego, Calif., USA) at a wavelength of 640 nm, a detection medium that turns purple or blue in the presence of alkaline phosphatase. […] Then 20 μL of the supernatant from each well was incubated with 180 μL Quanti-blue substrate solution at 37° C. for 2 hours and the absorbance was read at 620˜655 nm using a spectrophotometer. […] Hiroaki Hemmi et al, Nature Immunology 3, 196-200 (2002).

Chain of murine TLR7 (P58681 27-1050 limits assumed): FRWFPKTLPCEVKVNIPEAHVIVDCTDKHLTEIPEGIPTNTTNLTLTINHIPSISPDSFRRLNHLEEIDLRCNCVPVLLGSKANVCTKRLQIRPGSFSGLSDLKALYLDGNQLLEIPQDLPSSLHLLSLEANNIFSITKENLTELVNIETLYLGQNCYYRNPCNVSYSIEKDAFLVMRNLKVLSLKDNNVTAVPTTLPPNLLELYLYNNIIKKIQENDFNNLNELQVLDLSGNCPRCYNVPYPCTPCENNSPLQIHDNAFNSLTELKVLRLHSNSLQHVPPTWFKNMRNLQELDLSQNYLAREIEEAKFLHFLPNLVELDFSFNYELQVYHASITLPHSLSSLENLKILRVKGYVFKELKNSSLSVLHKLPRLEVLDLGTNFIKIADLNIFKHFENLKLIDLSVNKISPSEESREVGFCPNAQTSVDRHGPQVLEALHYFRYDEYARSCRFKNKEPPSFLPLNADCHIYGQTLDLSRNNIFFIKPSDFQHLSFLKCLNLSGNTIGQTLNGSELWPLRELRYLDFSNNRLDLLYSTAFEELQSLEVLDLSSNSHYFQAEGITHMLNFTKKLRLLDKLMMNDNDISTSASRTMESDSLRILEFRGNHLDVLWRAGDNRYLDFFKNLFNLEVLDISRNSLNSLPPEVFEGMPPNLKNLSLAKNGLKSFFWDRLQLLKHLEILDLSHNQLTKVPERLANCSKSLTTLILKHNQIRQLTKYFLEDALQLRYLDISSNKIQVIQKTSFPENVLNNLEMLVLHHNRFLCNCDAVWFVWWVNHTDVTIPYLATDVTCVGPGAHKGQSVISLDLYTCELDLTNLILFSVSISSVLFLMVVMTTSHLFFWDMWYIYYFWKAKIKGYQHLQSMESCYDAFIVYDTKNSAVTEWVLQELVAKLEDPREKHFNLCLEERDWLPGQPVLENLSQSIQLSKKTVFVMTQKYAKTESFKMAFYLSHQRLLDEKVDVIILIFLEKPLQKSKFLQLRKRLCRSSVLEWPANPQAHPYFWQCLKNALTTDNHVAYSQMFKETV
Chain of human TLR7 (Q9NYK1 27-1049): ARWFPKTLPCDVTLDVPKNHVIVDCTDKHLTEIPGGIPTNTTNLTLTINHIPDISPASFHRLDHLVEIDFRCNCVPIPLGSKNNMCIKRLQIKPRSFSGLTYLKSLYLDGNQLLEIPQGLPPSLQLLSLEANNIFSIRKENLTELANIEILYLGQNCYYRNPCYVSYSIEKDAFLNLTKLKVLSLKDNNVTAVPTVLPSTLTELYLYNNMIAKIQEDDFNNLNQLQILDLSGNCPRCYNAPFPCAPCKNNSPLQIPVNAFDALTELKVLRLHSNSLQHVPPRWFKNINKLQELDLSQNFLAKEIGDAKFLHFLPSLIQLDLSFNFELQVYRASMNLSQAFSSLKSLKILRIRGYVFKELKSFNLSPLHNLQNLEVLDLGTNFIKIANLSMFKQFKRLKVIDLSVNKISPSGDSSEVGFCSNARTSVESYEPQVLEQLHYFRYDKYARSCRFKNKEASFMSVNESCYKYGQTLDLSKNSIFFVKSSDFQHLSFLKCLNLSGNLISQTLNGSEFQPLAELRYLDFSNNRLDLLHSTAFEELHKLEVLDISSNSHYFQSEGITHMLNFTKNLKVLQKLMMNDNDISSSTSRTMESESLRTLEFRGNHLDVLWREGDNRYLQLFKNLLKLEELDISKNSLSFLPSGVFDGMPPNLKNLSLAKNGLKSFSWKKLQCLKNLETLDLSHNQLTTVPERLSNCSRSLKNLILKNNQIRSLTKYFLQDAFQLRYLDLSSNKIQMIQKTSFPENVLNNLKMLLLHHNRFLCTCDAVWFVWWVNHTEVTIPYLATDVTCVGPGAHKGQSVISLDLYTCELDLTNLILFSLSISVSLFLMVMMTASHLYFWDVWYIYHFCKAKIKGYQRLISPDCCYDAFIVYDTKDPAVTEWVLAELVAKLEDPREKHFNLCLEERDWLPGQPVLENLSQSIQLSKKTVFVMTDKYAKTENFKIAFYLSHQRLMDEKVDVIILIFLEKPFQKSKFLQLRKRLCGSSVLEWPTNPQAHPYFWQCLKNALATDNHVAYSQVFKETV

`CCC(O)[C@@H]1C[C@@H](O)[C@H](n2c(=O)sc3c(=O)[nH]c(N)nc32)O1` (single isomer, unassigned) [Example 1-A] was tested, and the IFNα induction (murine PBMC) was “high levels”, the IL-6 induction (murine PBMC) was “high levels” and the IP10 induction (murine PBMC) was “high levels”. The TNFα induction (murine PBMC) was “high levels”, the EC50 (murine TLR7) was 71.8 µM and the EC50 (human TLR7) was 52 µM.
